Reference: paper PMC10644342, “Improved Antibacterial Activity of 1,3,4-Oxadiazole-Based Compounds That Restrict Staphylococcus aureus Growth Independent of LtaS Function” (ACS Infectious Diseases, 2023)
In brackets after ≈: the same amount, converted by molar mass.

What was measured:
B. subtilis (W168) = experiment: MIC, broth microdilution (CLSI); assay type: cell-based; conditions: Bacillus subtilis
Procedure: (§1) B. subtilis, staphylococcal, and enterococcal strains were grown in Mueller Hinton broth (MHB), while streptococcal strains were grown in MHB supplemented with 5% laked horse blood. All strains were grown for 18 h at 37 °C. The overnight cultures were subsequently subcultured 1:200 and grown to the exponential phase (OD600nm = 0.5–0.6) in fresh broth. 1771 and its derivatives 9–14 were reconstituted in DMSO and further diluted by performing a 1:2 serial dilution ranging between 256 and 0.125 μg/mL in a 96-well microtiter plate. One hundred microliters of 0.5 McFarland standardized inoculum (approximately equal to 5 × 10^5 cfu) were then dispensed into each well in the 96-well microtiter plate. The plate was incubated for 18 h at 37 °C.

E. faecalis (JH2-2) = experiment: MIC, broth microdilution (CLSI); assay type: cell-based; conditions: Enterococcus faecalis
Procedure: (§2) S. aureus, S. epidermidis, E. faecalis, and E. faecium strains were routinely cultivated on tryptic soy agar (TSA) and grown for 18 h at 37 °C. S. aureus single colonies were subsequently transferred into 2 mL of tryptic soy broth (TSB) and grown for a further 18 h at 37 °C while being shaken at 180 rpm. S. pyogenes, S. agalactiae, and S. dysgalactiae strains were routinely cultured on TSA supplemented with 5% sheep blood and grown for 18 h at 37 °C with 5% CO2. E. coli was grown in LB broth at 37 °C. For LtaS-deficient strains, TSB was supplemented with 0.5 M NaCl to provide an osmotically balanced environment and instead grown at 30 °C. For strains harboring the pRMC2 tetracycline inducible vector,[61] the growth medium was supplemented with 10 μg/mL chloramphenicol and […] anhydrotetracycline hydrochloride (Sigma). Phenylalanine-arginine β-naphthylamide (PAβN) (Sigma) was dissolved in sterile water.
as §1

E. faecium (C68) = experiment: MIC, broth microdilution (CLSI); assay type: cell-based; conditions: Enterococcus faecium
Procedure: as §2, §1

S. agalactiae = experiment: MIC, broth microdilution (CLSI); assay type: cell-based; conditions: Streptococcus agalactiae
Procedure: as §2, §1

S. dysgalactiae = experiment: MIC, broth microdilution (CLSI); assay type: cell-based; conditions: Streptococcus dysgalactiae
Procedure: as §2, §1

S. pyogenes = experiment: MIC, broth microdilution (CLSI); assay type: cell-based; conditions: Streptococcus pyogenes
Procedure: as §2, §1

S. aureus strain SH1000 = experiment: Biofilm prevention, crystal violet assay; assay type: cell-based, Staphylococcus aureus; conditions: for concentration causing a 50% reduction in biofilm formation: SH1000, 24 h
Procedure: (§3) An indication of the biofilm prevention capabilities of 1771 and its derivatives 9–14 was achieved through the application of the crystal violet assay. S. aureus strain SH1000 and S. epidermidis strain RP62A were used, as they are strong biofilm formers. Overnight cultures were diluted 1:200 in fresh TSB containing 0.5% glucose (TSB-G), and 100 μL was added to individual wells in a 96-well microtiter plate. One hundred microliters of 1771 and 9–14 were diluted in TSB-G and added to bacteria at a final concentration ranging from 256 to 0.25 μg/mL with subsequent incubation for 24 h at 37 °C in a static incubator. Following incubation, biofilms were washed four times with ddH2O before being stained with 150 μL of 0.1% crystal violet for 30 min at room temperature. Following a further four washes in ddH2O, wells were resuspended in 200 μL of 7% acetic acid. The absorbance intensity of the crystal violet was measured at abs595nm in a Sunrise plate reader. Biomass formed was measured as a percentage of the no-compound control.

[1] = tested on: S. epidermidis strain RP62A; experiment: Biofilm prevention, crystal violet assay; assay type: cell-based, Staphylococcus epidermidis; conditions: for concentration causing a 50% reduction in biofilm formation: 24 h
Procedure: as §3

[2] = tested on: HepG2 human liver cancer cells; experiment: HepG2 liver cell toxicity assay (MTT); assay type: cell-based; conditions: for IC50: Homo sapiens, 24 h incubation, MTT, concentration responsible for 50% HepG2 cell death
Procedure: HepG2 human liver cancer cells (ECACC: Cat no. 85011430) were grown in Dulbecco’s Modified Eagle’s Medium (DMEM; with 4.5 g/L glucose) supplemented with 10% (v/v) fetal bovine serum, 1% (v/v) minimal essential media, and 0.2% (v/v) penicillin/streptomycin/L-glutamine solution. Cells were then seeded at a concentration of 10,000 cells per well and allowed to attach and grow for 18 h. Following this, the medium was aspirated away and replaced with a medium containing a range of concentrations of 1771 and compound 13, and the cells were grown for a further 24 h. After this, cell viability was assessed using the MTT (3-[4,5-dimethylthiazol-2-yl]-2,5-diphenyltetrazolium bromide) assay. 1771 or 13 containing growth media was aspirated away and replaced with 100 μL of 1 mg/mL MTT (in growth media) and incubated for 50 min at 37 °C. Subsequently, this solution was removed, and 150 μL of isopropanol was added to the cells and allowed to incubate at RT with gentle rocking on an orbital shaker. Absorbance at abs595nm was recorded using a Sunrise plate reader, and the % cell viability was calculated compared to a no-compound control.

E. coli strain K12 = experiment: Growth inhibition in combination with PAβN; assay type: cell-based, Escherichia coli; conditions: for concentration at which growth was completely inhibited: E. coli K12, 50 μg/mL PAβN; for MIC: Escherichia coli, E. coli K12, 100 μg/mL PAβN
Procedure: Phenylalanine-arginine β-naphthylamide (PAβN) is a well-studied efflux pump inhibitor, which can also permeabilize the outer membrane of Gram-negative organisms.[40] […] Without the addition of PAβN (0 μg/mL), neither 1771 nor 13 had any growth inhibitory activity at concentrations up to 64 μg/mL. With the addition of 25 μg/mL of PAβN, the E. coli strain K12 could still grow in the presence of 64 μg/mL of 1771 or 13; however, the growth rate was severely impacted in a dose-dependent manner. […] To further evaluate the Gram-negative coverage of 1771 and 13, we also tested 1771 or 13 in combination with PAβN against Pseudomonas aeruginosa strain PAO1, Klebsiella pneumoniae strain 699 (clinical isolate), and Acinetobacter baumannii strain DF1000 (clinical isolate) (Figure S6a–c).
Figure 8 Permeabilization of the outer membrane renders E. coli susceptible to 1771 and 13. Bacterial growth curves of (a) 1771 and (b) 13 (0–64 μg/mL) in combination with 0, 25, 50, and 100 μg/mL of PAβN. The bacterial growth (OD600nm) was plotted against time following 18 h of growth at 37 °C. The icons represent the mean of three biological replicates.

[3] = NCTC10238, S. dysgalactiae (NCTC 10238)
[4] = NCTC13762, S. dysgalactiae (NCTC 13762)
[5] = NCTC8198, S. pyogenes (NCTC 8198)
[6] = NCTC12048, S. pyogenes (NCTC 12048)
[7] = E. coli K12, 25 μg/mL PAβN, growth rate severely impacted dose-dependently
[8] = E. coli K12, without PAβN (0 μg/mL), 18 h

Row | SMILES | MIC (B. subtilis (W168)) [µg/mL] | MIC (E. faecalis (JH2-2)) [µg/mL] | MIC (E. faecium (C68)) [µg/mL] | MIC (S. agalactiae; S. agalactiae (18R521)) [µg/mL] | MIC (S. agalactiae; S. agalactiae (COH1)) [µg/mL] | MIC (S. dysgalactiae; [3]) [µg/mL] | MIC (S. dysgalactiae; [4]) [µg/mL] | MIC (S. pyogenes; [5]) [µg/mL] | MIC (S. pyogenes; [6]) [µg/mL] | biofilm prevention compared with 1771 (S. aureus strain SH1000; SH1000) | concentration causing a 50% reduction in biofilm formation (S. aureus strain SH1000) [µg/mL] | biofilm prevention compared with 1771 [1] | concentration causing a 50% reduction in biofilm formation [1] [µg/mL] | IC50 [2] [µg/mL] | growth inhibitory concentration (E. coli strain K12; [7]) [µg/mL] | concentration at which growth was completely inhibited (E. coli strain K12) [µg/mL] | growth inhibitory concentration (E. coli strain K12; [8]) [µg/mL] | MIC (E. coli strain K12) [µg/mL] | selectivity index (IC50/MIC50) ([2]; HepG2 IC50 / S. aureus MIC50)
1 | O=C(COC(=O)Cc1coc2ccc3ccccc3c12)Nc1nnc(-c2ccc(S(F)(F)(F)(F)F)cc2)o1 [Compound 13, 2-Oxo-2-((5-(4-(pentafluoro-l6-sulfaneyl)phenyl)-1,3,4-oxadiazol-2-yl)amino)ethyl 2-(Naphtho[2,1-b]furan-1-yl)acetate] | 0.5 to 1 (≈ 0.903 to 1.81 µM) | 2 (≈ 3.61 µM) | > 128 | 64 (≈ 116 µM) | 128 (≈ 231 µM) | 64 (≈ 116 µM) | 64 (≈ 116 µM) | 16 to 32 (≈ 28.9 to 57.8 µM) | 64 (≈ 116 µM) | better than 1771 | 0.25 | better than 1771 | 0.25 | 27.3 (≈ 49.3 µM) | > 64 | 64 | > 64 | 1 | –
2 | O=C(COC(=O)Cc1coc2ccc3ccccc3c12)Nc1nnc(-c2ccccc2)o1 [Compound 1771, 2-Oxo-2-((5-phenyl-1,3,4-oxadiazol-2-yl)amino)ethyl 2-(Naphtho[2,1-b]furan-1-yl)acetate, reference compound] | 4 to 8 (≈ 9.36 to 18.7 µM) | 16 (≈ 37.4 µM) | > 128 | 128 (≈ 299 µM) | > 128 | > 128 | 128 (≈ 299 µM) | 32 to 64 (≈ 74.9 to 150 µM) | 128 (≈ 299 µM) | – | 4 | – | 8 | 24.7 (≈ 57.8 µM) | > 64 | 64 | > 64 | 4 | 3.08
